Reference: patent US5077289A (priority 1989, dated 1991)
pIC50: −log10 of the molar value. Counter-ions that a name gives are not always drawn. Like-named read-outs stand apart in the source and are kept apart here.

How the values were obtained:
[1] = test system: Scopolamine Induced Memory Deficit; assay: Dark Avoidance Assay (reversal of scopolamine induced memory deficit); assay type: in vivo; details: mice, s.c.
Protocol: In this assay mice are tested for their ability to remember an unpleasant stimulus for a period of 24 hours. A mouse is placed in a chamber that contains a dark compartment; a strong incandescent light drives it to the dark compartment, where an electric shock is administered through metal plates on the floor. The animal is removed from the testing apparatus and tested again, 24 hours later, for the ability to remember the electric shock.
If scopolamine, an anticholinergic that is known to cause memory impairment, is administered before an animal's initial exposure to the test chamber, the animal re-enters the dark compartment shortly after being placed in the test chamber 24 hours later. This effect of scopolamine is blocked by an active test compound, resulting in a greater interval before re-entry into the dark compartment.
The results for an active compound are expressed as the percent of a group of animals in which the effect of scopolamine is blocked, as manifested by an increased interval between being placed in the test chamber and re-entering the dark compartment.

[2] = test system: 2-phenyl-1,4-benzoquinone-induced writhing; assay: Inhibition of phenylquinone-induced writhing in mice (PQW), analgesic activity; assay type: in vivo, mice (male CD-1 Charles River); details: Mus musculus, sc, read-out: ANALGESIC ACTIVITY, POW (ED50)
Protocol: Compounds I of the present invention are also useful as analgesic agents due to their ability to alleviate pain in mammals. […] Exptl. Biol. Med., 95, 729 (1957)].
A 0.125% concentration of phenyl-p-benzoquinone in a 5% aqueous solution of ethyl alcohol is administered to mice (10 mL/kg, ip). This produces a characteristic "writhe" which is defined as an inward rotation of one or more feet with twisting and turning of the trunk, drawing in of the abdominal wall, lordosis, and arching of the back. A total of 28 male CD-1 Charles River mice (18-30 g) are employed for a time-response. Animals receive food and water ad libitum during their stay in the animal quarters prior to testing. Compounds are tested at 20 mg/kg, sc and are prepared with distilled water, and if insoluble one drop of Tween-80, a surfactant is added. Compounds are administered in a dosage volume of 10 mL/kg.
Twenty mice (five per group) are administered the test compound at various pretreat time (e.g., 15, 30, 45, and 60 min) prior to phenylquinone injection. Control animals (two per group) receive an equal volume of vehicle. After the administration of phenylquinone, the mice are placed separately into 1-L beakers, and 5 min are allowed to elapse. The mice are then observed for a period of 10 min, and the number of writhers is recorded for each animal. The formula for computing percent inhibition is [formula]
The time period with the maximum percent of inhibition is considered the peak time. A dose-response is reserved for interesting compounds or those which inhibit writhing by 70% or more. A dose-response is run in the same manner as a time-response except 10 animals per group are tested at the peak time of drug activity. Fifty animals, divided among four drug groups and one vehicle control group, are employed. The mice are normally given four doses of drug, each twice the amount of the preceding dose. An ED50 is calculated by a computer linear regression analysis.
Results of this assay for some of the compounds of this invention and eseroline salicylate (reference compound) are shown in Table 3.

Brain AChE = molecular target: T1, Brain AChE (Rattus norvegicus, UniProt P37136); assay: In vitro inhibition of acetylcholinesterase activity in rat striatum (modified Ellman); assay type: biochemical, rat (male Wistar)
T1 construct: brains rapidly removed, corpora striata dissected free, weighed and homogenized in 19 volumes; from tissue; host or cells: corpus striatum homogenate of male Wistar rats
T1 sequence (P37136 32-614): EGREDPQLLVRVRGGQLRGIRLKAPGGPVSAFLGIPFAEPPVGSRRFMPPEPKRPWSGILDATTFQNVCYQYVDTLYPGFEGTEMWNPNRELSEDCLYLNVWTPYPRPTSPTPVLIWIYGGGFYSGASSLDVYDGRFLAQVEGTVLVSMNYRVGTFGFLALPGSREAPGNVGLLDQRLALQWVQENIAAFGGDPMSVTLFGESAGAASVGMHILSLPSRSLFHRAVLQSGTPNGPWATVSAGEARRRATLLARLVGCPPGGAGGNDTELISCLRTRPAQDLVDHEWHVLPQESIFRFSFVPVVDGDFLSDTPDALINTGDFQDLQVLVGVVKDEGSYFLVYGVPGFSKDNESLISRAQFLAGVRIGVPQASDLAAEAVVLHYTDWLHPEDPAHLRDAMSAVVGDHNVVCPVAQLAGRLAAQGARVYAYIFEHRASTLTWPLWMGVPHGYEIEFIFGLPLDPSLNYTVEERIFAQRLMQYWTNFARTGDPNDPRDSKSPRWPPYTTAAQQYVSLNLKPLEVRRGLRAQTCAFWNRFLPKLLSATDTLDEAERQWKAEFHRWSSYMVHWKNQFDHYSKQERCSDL
Protocol: Cholinesterases are found throughout the body, both in the brain and in serum. However, only brain acetylcholinesterase (AChE) distribution is correlated with central cholinergic innervation.
This is a modification of the method of Ellman et al., Biochem. Pharmacol. 7, 98 (1961).
1. 0.05M Phosphate buffer, pH 7.2
(a) 6.85 g NaH2 PO4 .cndot.H2 O/100 ml distilled H2 O
(c) add (a) to (b) until pH reaches 7.2
(a) 9.9 mg 5,5-dithiobisnitrobenzoic acid (DTNB) (0.25 mM)
(c) q.s. to 100 ml with 0.05M phosphate buffer, pH 7.2 (reagent 1)
3. For most assays, a […] stock solution of the test drug is made up in a suitable solvent and serially diluted such that the final concentration in the preincubation step ranges from 10^-3 to 10^-6 M. Different concentrations may be used depending on the potency of the drug. […]
Following the 10 minute preincubation of the tissue (enzyme) with the inhibitor, the samples are mixed with the substrate chromogen buffer by the ABA-100. Using the indicated instrument settings the ABA-100 automatically reads the color reaction and prints out the results in enzyme units after 15 minutes.
2. The enzyme activity can also be measured with a Gilford 250 spectrophotometer. […]
The uninhibited activity of the enzyme (tissue homogenate) is first determined. […] The reaction rate is determined by the slope of the recorded absorbance change. […]

SMILES | % of Animals with Scopolamine Induced Memory Deficit Reversal ([1]; 0.16 mg/kg of body weight) [%] | ED50 [2] [mg/kg] | other results
CCCNC(=O)N(CCC)C(=O)Oc1ccc2c(c1)[C@]1(C)CCN(C)[C@@H]1N2C [Example 4, (3aS-cis)-1,2,3,3a,8,8a-Hexahydro-1,3a,8-trimethylpyrrolo[2,3-b]indol-5-yl propyl[(propylamino)carbonyl] carbamate oxalate] | 40 |  | % of Animals with Scopolamine Induced Memory Deficit Reversal ([1]; 2.50 mg/kg of body weight): 36%
CN1CC[C@@]2(C)c3cc(O)ccc3N(C)[C@@H]12 [Eseroline Salicylate, reference compound] |  |  | ED50 ([2]; mice, s.c., ED50 by linear regression per method, at peak time): 0.52 mg/kg
CN(C(=O)Nc1cccc(Cl)c1)C(=O)Oc1ccc2c(c1)[C@]1(C)CCN(C)[C@@H]1N2C [Example 5, (3aS-cis)-1,2,3,3a,8,8a-Hexahydro-1,3a,8-trimethylpyrrolo[2,3-b]indol-5-yl methyl[[(3-chlorophenyl)amino]carbonyl] carbamate] |  | 0.15 | pIC50 (Brain AChE): 6.68
CNC(=O)N(C)C(=O)Oc1ccc2c(c1)[C@]1(C)CCN(C)[C@@H]1N2C [Example 1, (3aS-cis)-1,2,3,3a,8,8a-Hexahydro-1,3a,8-trimethylpyrrolo[2,3-b]indol-5-yl methyl[(methylamino)carbonyl] carbamate] | 20 | 8 | 
CNC(=O)N(C)C(=O)Oc1cc(C)c2c(c1)[C@]1(C)CCN(C)[C@@H]1N2C [Example 2, (3aS-cis)-1,2,3,3a,8,8a-Hexahydro-1,3a,7,8-tetramethylpyrrolo[2,3-b]indol-5-yl methyl[(methylamino)carbonyl] carbamate] |  | 0.81 | 
CNC(=O)Oc1ccc2c(c1)[C@]1(C)CCN(C)[C@@H]1N2C [Physostigmine, reference compound] |  |  | % of Animals with Scopolamine Induced Memory Deficit Reversal ([1]; 0.31 mg/kg of body weight): 20%
